What all share (test): NCI tumour cell line growth inhibition, 48 h
Experiment [1] concerns Malme-3M.
The subject of experiment [2] is SNB-19.
In experiment [3] the test system is SF-268.
Experiment [4] relates to NCI-H226.
Experiment [5] concerns OVCAR-4.
Experiment [6] has as its system SF-539.
The subject of experiment [7] is HOP-62.
The test system of experiment [8] is RXF 393.
Experiment [9] has as its system A498.
Experiment [10] concerns NCI-H460.
The test system of experiment [11] is HL-60.
The subject of experiment [12] is NCI/ADR-RES.
Experiment [13] relates to MOLT-4.
Experiment [14] concerns OVCAR-8.
Experiment [15] has as its system EKVX.
Experiment [16] has as its system HCT-15.
For experiment [17], the system named is LOX IMVI.
Experiment [18] deals with SK-MEL-5.
The test system of experiment [19] is COLO 205.
Experiment [20] has as its system NCI-H23.

The values that follow come from ChEMBL document CHEMBL1201862, “PubChem BioAssay data set” (2004).

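Protocol summary: plate cells (96-well), add compound at 5 concentrations, incubate 48 h, interpolate endpoints linearly. Here, GI50 denotes the concentration required for 50% inhibition of growth.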 Active and inactive are the calls of the source. Cut-off read from the data, not from the text of the source: active = GI50 up to about 1.1 µM and inactive = higher.

In the case of `O=C(Nc1nc(C23CC4CC(CC(C4)C2)C3)cs1)c1c(O)c2ccccc2[nH]c1=O`, the GI50 in experiment [1] is > 100 µM (inactive); in [2] it was > 100 µM (inactive); in experiment [3], 23.3 µM (inactive); in experiment [4], > 100 µM (inactive); in experiment [5], 60.5 µM (inactive); in [6] it was > 100 µM (inactive). Also, the GI50 is > 100 µM (inactive) in experiment [7]; 53.6 µM (inactive) in [8]; > 100 µM (inactive) in [9]; > 100 µM (inactive) in [10]; > 100 µM (inactive) in experiment [11]; > 100 µM (inactive) in experiment [12]. The GI50 in [13] was > 100 µM (inactive); in [14], > 100 µM (inactive); in experiment [15], > 100 µM (inactive); in experiment [16], > 100 µM; in experiment [17], > 100 µM (inactive); in [18], > 100 µM (inactive). In addition, the GI50 in experiment [19] and in [20] was > 100 µM (inactive) each time.
In the case of `Cc1cc(C)c2c(O)cc(-c3cccc(Cl)c3)nc2n1`, the GI50 in [1] was 0.18 µM (active); in experiment [2], 0.349 µM (active); in experiment [3] it was 1.05 µM (active); in [4] it was 0.391 µM (active); in experiment [5], 77.3 µM (inactive); in [6], 0.119 µM (active). The GI50 is 0.438 µM (active) in [7]; 0.179 µM (active) in experiment [8]; 0.514 µM (active) in experiment [9]; 0.0968 µM (active) in experiment [10]; 0.0316 µM (active) in [11]; 0.254 µM (active) in experiment [12]. The GI50 in experiment [13] is 0.161 µM (active); in experiment [14], 0.4 µM (active); in experiment [15], > 25 µM (inactive); in experiment [16], 0.101 µM; in experiment [17] it was 0.273 µM (active); in [18], 0.0518 µM (active). The results for the GI50 in [19] and in [20] were 0.175 µM (active) and 0.76 µM (active), respectively.
In the case of `COC1(OC)CC(CO)(CNc2nc(N)nc(Cl)c2/C=N\O)C1`, the GI50 in experiment [1] was 20.8 µM (inactive); in experiment [2], 40.7 µM (inactive); in experiment [3], > 100 µM (inactive); in experiment [4], 29.6 µM (inactive); in [5], 29.5 µM (inactive); in experiment [6], 38.8 µM (inactive). The GI50 in [7] was 23.2 µM (inactive); in [8], 18.7 µM (inactive); in experiment [9], 18.5 µM (inactive); in experiment [10] it was 37.4 µM (inactive); in experiment [11] it was 39.3 µM (inactive); in experiment [12], 46 µM (inactive). Also, the GI50 in experiment [13] was 15.3 µM (inactive); in experiment [14], 54.7 µM (inactive); in experiment [15], 22.7 µM (inactive); in experiment [16] it was 75.5 µM; in [17] it was 22.7 µM (inactive); in experiment [18], 43.1 µM (inactive). The GI50 is 38.6 µM (inactive) in experiment [19] and 9.77 µM (inactive) in experiment [20].
As to `C[C@]12C(=O)OC[C@H](c3ccccc3)N1C(=O)N(Cc1ccccc1)[C@@H]2CO`, the GI50 in [1], in [2], in experiment [3], in experiment [4], in [5] and in experiment [6] was > 100 µM (inactive) throughout. Also, the GI50 in experiment [7], in [8], in experiment [9], in [10], in experiment [11] and in experiment [12] was > 100 µM (inactive) throughout. In addition, the GI50 in [13] is > 100 µM (inactive); in [14] it was > 100 µM (inactive); in experiment [15] it was > 100 µM (inactive); in [16], > 100 µM; in experiment [17], > 100 µM (inactive); in [18], > 100 µM (inactive). Also, the GI50 in experiment [19] was > 100 µM (inactive).
